Experimental data taken from patent US20240368221A1, “IMPATIENS BALSAMINA-DERIVED ANTI-BACTERIAL PEPTIDE AND ANTI-BACTERIAL COMPOSITION CONTAINING SAME” (V&CO CO., LTD., priority 2021, published 2024).
In brackets after ≈: the same amount, converted by molar mass. Where a SMILES comes first, the peptide text is derived from it.

Columns and labels:
[1] = system: L929 cells (murine fibroblast cell line); experiment: Cytotoxicity, WST-1 cell viability; assay type: cell-based; conditions: L929 cells
Procedure: (§1) Specifically, cytotoxicity was evaluated using a skin cell line, L929 cells (murine fibroblast cell line). In addition, as comparative groups, Ib-AMP4 and the bee venom-derived AMP, melittin, known to be highly cytotoxic, were used. The L929 cells were cultured in RPMI 1640 medium (Gibco), which was supplemented with 10% FBS (Sigma), antibiotic-antimycotic cocktail, penicillin G (100 IU/mL), streptomycin (100 μg/mL), and amphotericin B (250 ng/ml; Gibco), at 37° C. in 5% CO2. The cells were seeded in a 96-well plate at 1×10^4 cell/well, incubated for 18 hours, treated with each peptide at 1.25 to 160 µg/mL, and then incubated for 24 hours. 10 μL of WST-1 reagent was added to 100 μL of the medium and allowed to react at 37° C. for 30 minutes, and then absorbance (A450) was measured at 450 nm using a microplate reader. Instead of the peptides, 0.1% Triton X-100 and PBS were used as positive and negative controls, respectively, and cell viability was calculated based on the following equation: % Cell viability=[(A450 in peptide solution−A450 in PBS)/(A450 in 0.1% Triton X−100-A450 in PBS)]×100. The analysis results were expressed as mean±S.D of three repeated experiments.

[2] = Cytotoxicity, WST-1 cell viability; assay type: cell-based, murine; conditions: mouse, L929 cells (murine fibroblast cell line), L929 cells
Procedure: as §1

[3] = system: Escherichia coli KCCM 41290; assay type: cell-based; conditions: Escherichia coli
Procedure: (§2) To examine the antimicrobial and antifungal activity of the six types of peptide derivatives prepared in Example 1, antimicrobial and antifungal activity was analyzed using three types of bacterial strains and two types of fungal strains.
(§3) Specifically, to analyze antimicrobial and antifungal activity, a minimal inhibitory concentration (MIC) was measured. The three types of bacterial strains included Escherichia coli KCCM 41290, Staphylococcus aureus KCTC 1621, and Cutibacterium acnes KCTC 3314, and the two types of fungal strains included Candida albicans KCTC 17712, and Aspergillus niger KCTC 6317. The culture of Escherichia coli and Staphylococcus aureus was performed in Luria-Bertani (LB) medium (BD Difco), and the culture of Cutibacterium acnes was performed in reinforced clostridial medium (RCM, BD Difco). The culture of Candida albicans and Aspergillus niger was performed in potato dextrose (PD) medium (BD Difco). The pre-cultured microorganisms or spores were diluted in a medium to 5×10^3 CFU/mL, and each of the six types of peptide derivatives prepared in Example 1 was added at a predetermined concentration. Afterward, a bacterial strain was cultured at 37° C., a fungal strain was cultured at 25° C. for 18 to 24 hours, and optical densities (OD600) were measured using a microplate reader. Fluorescence values (Ex560 and Em600), instead of optical densities, were measured after adding a resazurin reagent to the Aspergillus niger medium to have a concentration of 100 μM. As a control, Ib-AMP4 was used, and the analysis results were expressed as the average of three repeated experiments.

[4] = system: Aspergillus niger KCTC 6317; assay type: cell-based; conditions: Aspergillus niger, PD medium, 25° C., 18 to 24 hours, resazurin fluorescence
Procedure: as §2, §3

[5] = system: Staphylococcus aureus KCTC 1621; assay type: cell-based; conditions: Staphylococcus aureus
Procedure: as §2, §3

[6] = system: Cutibacterium acnes KCTC 3314; assay type: cell-based; conditions: KCTC 3314
Procedure: as §2, §3

[7] = system: Candida albicans KCTC 17712; assay type: cell-based; conditions: Candida albicans, PD medium, 25° C., 18 to 24 hours, OD600
Procedure: as §2, §3

[8] = system: sheep red blood cells (sRBCs); experiment: Hemolytic activity; assay type: cell-based; conditions: for Hemolytic Activity (%): red cells of sheep
Procedure: Specifically, hemolytic activity was analyzed using sheep red blood cells (sRBCs). In addition, as comparative groups, Ib-AMP4 and melittin were used. Defibrinated sheep blood (MB cells) was centrifuged (4,000×g, 10 min, 4° C.), washed with PBS three times, and suspended in PBS, thereby preparing an sRBC solution (10% sRBC). 5% sRBC and each peptide were mixed to have a final concentration of 1.25 to 160 μg/mL, allowed to react at room temperature for 30 minutes, and centrifuged to collect a supernatant. The absorbance (A414) of hemoglobin eluted from the red blood cells in the collected supernatant was measured at 414 nm. 0.1% Triton X−100 was used as a positive control, PBS was used as a negative control, and hemolytic activity (% Hemolysis) was calculated based on the following equation: % Hemolysis=[(A414 in peptide solution−A414 in PBS)/(A414 in 0.1% Triton X−100−A414 in PBS)]×100.

[9] = LB medium, 37° C., 18 to 24 hours, OD600

N=C(N)NCCC[C@H](NC(=O)CNC(=O)[C@H](Cc1c[nH]c2ccccc12)NC(=O)[C@@H](N)CCC(=O)O)C(=O)N[C@@H](CCCNC(=N)N)C(=O)N[C@@H](CS)C(=O)N[C@@H](CS)C(=O)NCC(=O)N[C@@H](Cc1c[nH]c2ccccc12)C(=O)NCC(=O)N1CCC[C@H]1C(=O)NCC(=O)N[C@@H](CCCNC(=N)N)C(=O)N[C@@H](CCCNC(=N)N)C(=O)N[C@@H](Cc1ccc(O)cc1)C(=O)N[C@@H](CS)C(=O)N[C@@H](CCCNC(=N)N)C(=O)N[C@@H](CCCNC(=N)N)C(=O)N[C@@H](Cc1c[nH]c2ccccc12)C(=O)N[C@@H](CS)C(N)=O [Ib-AMP4] (H-EWGRRCCGWGPGRRYCRRWC-NH2; N-terminus assumed)
cytotoxic activity (in words) [1]: insignificant cytotoxic and hemolytic activity
viability at 24 h, 1.25 µg/mL ([2]; peptide 1.25 μg/mL, 24 hours, read-out: Relative cell viability (%)): 95%
viability at 24 h, 2.5 µg/mL ([2]; peptide 2.5 μg/mL, 24 hours, read-out: Relative cell viability (%)): 94.4%
viability at 24 h, 5 µg/mL ([2]; peptide 5.0 μg/mL, 24 hours, read-out: Relative cell viability (%)): 95.1%
viability at 24 h, 10 µg/mL ([2]; peptide 10 μg/mL, 24 hours, read-out: Relative cell viability (%)): 95.7%
viability at 24 h, 20 µg/mL ([2]; peptide 20 μg/mL, 24 hours, read-out: Relative cell viability (%)): 97.3%
viability at 24 h, 40 µg/mL ([2]; peptide 40 μg/mL, 24 hours, read-out: Relative cell viability (%)): 90.4%
viability at 24 h, 80 µg/mL ([2]; peptide 80 μg/mL, 24 hours, read-out: Relative cell viability (%)): 92.2%
viability at 24 h, 160 µg/mL ([2]; peptide 160 μg/mL, 24 hours, read-out: Relative cell viability (%)): 89.2%
viability at 24 h, 160 g/mL ([2]; peptide 160 g/mL as printed, read-out: cell viability): ≥ 90%
antimicrobial activity (in words) [3]: insignificant antimicrobial activity
MIC [3, 9]: > 100 µg/mL
MIC [4]: 80 µg/mL (≈ 31.5 µM)
antimicrobial activity (in words) [5]: insignificant antimicrobial activity
MIC [5, 9]: > 100 µg/mL
MIC [6]: >100 µg/mL
MIC [7]: 60 µg/mL (≈ 23.6 µM)
Hemolytic Activity (%) ([8]; 1.25 μg/mL): 4.09%
Hemolytic Activity (%) ([8]; 2.5 μg/mL): 4.47%
Hemolytic Activity (%) ([8]; 5 μg/mL): 7.42%
Hemolytic Activity (%) ([8]; 10 μg/mL): 8.42%
Hemolytic Activity (%) ([8]; 20 μg/mL): 10.15%
Hemolytic Activity (%) ([8]; 40 μg/mL): 15.79%
Hemolytic Activity (%) ([8]; 80 μg/mL): 16.61%
hemolytic activity (in words) ([8]; sheep red blood cells): insignificant cytotoxic and hemolytic activity
